{"source": "paper PMC8800111", "about": "(The Journal of Biological Chemistry, 2021)", "type_in_all_cases": "cell-based", "key": {"[1]": {"target": "proteins of U3A human fibrosarcoma cells (4462 proteins detected) (Homo sapiens, UniProt Q9NYZ3)", "sequence (Q9NYZ3 whole entry)": "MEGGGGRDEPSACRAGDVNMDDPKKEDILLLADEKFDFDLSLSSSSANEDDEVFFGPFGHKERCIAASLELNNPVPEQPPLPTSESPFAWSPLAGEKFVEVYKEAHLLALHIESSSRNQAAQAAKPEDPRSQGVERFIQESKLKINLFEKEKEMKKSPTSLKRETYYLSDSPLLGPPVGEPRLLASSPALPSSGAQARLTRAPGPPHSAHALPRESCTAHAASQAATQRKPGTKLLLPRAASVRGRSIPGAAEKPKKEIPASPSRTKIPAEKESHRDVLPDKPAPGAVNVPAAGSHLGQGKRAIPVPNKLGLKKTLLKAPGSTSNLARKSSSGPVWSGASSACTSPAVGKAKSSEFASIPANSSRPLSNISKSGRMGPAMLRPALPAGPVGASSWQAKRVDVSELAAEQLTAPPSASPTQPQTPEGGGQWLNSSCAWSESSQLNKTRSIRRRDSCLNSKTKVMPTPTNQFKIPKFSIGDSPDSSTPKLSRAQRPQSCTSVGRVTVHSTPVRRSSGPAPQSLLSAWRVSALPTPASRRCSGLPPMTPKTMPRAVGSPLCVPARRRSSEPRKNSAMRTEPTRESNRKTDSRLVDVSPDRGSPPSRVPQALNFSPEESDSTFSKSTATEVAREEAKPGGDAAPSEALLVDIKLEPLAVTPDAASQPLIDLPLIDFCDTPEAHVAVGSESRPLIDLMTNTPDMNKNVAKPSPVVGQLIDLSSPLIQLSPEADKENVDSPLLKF", "conditions": "protein GTSE1; U3A cells"}, "[2]": {"target": "proteins of U3A human fibrosarcoma cells (4462 proteins detected) (Homo sapiens, UniProt Q6QNY1)", "sequence (Q6QNY1 whole entry)": "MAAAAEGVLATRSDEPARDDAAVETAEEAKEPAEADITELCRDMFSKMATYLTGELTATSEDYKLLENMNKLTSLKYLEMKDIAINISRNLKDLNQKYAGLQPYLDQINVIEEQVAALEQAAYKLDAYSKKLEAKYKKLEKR", "conditions": "protein BLOC1S2, U3A cells"}, "[3]": {"target": "proteins of U3A human fibrosarcoma cells (4462 proteins detected) (Homo sapiens, UniProt P82933)", "conditions": "protein MRPS9; soluble abundance after heat, U3A cells"}, "[4]": {"target": "proteins of U3A human fibrosarcoma cells (4462 proteins detected) (Homo sapiens, UniProt O00622)", "conditions": "protein CYR61; U3A cells"}, "[5]": {"target": "proteins of U3A human fibrosarcoma cells (4462 proteins detected) (Homo sapiens, UniProt P11182)", "conditions": "protein DBT; U3A cells"}, "[6]": {"target": "proteins of U3A human fibrosarcoma cells (4462 proteins detected) (Homo sapiens, UniProt Q6P3W2)", "sequence (Q6P3W2 whole entry)": "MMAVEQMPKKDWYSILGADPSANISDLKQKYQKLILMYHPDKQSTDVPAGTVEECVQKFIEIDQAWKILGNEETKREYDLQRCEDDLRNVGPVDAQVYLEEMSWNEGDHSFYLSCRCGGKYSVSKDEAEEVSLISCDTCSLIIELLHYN", "conditions": "protein DNAJC24; ZCSL3, U3A cells"}, "[7]": {"target": "proteins of U3A human fibrosarcoma cells (4462 proteins detected) (Homo sapiens, UniProt Q99459)", "sequence (Q99459 whole entry)": "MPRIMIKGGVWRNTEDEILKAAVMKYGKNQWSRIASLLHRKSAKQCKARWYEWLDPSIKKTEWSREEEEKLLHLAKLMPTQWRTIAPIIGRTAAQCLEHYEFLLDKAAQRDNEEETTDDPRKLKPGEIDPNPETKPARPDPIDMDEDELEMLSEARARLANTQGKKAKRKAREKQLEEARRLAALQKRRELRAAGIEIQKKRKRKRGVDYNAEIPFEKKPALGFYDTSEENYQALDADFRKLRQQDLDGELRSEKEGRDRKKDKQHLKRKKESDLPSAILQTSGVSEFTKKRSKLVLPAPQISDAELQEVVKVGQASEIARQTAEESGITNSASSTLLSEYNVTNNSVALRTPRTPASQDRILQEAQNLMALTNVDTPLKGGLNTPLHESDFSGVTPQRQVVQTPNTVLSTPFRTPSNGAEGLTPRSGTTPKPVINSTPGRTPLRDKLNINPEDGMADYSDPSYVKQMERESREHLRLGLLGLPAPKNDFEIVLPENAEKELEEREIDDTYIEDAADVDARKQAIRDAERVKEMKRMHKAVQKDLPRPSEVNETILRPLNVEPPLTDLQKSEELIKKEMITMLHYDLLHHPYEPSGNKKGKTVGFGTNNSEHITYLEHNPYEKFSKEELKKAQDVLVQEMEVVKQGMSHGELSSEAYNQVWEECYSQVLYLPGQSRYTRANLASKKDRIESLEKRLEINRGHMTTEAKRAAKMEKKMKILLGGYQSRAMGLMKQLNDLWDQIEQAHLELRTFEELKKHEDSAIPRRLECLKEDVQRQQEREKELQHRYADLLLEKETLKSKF", "conditions": "protein CDC5L; U3A cells"}, "[8]": {"target": "proteins of U3A human fibrosarcoma cells (4462 proteins detected) (Homo sapiens, UniProt Q53H96)", "conditions": "protein PYCRL; U3A, 10 μM, 2 h"}, "[9]": {"target": "proteins of U3A human fibrosarcoma cells (4462 proteins detected) (Homo sapiens, UniProt Q9HCJ0)", "conditions": "protein TNRC6C, U3A cells"}, "[10]": {"target": "proteins of U3A human fibrosarcoma cells (4462 proteins detected) (Homo sapiens, UniProt O75937)", "conditions": "protein DNAJC8, U3A cells"}, "[11]": {"target": "proteins of U3A human fibrosarcoma cells (4462 proteins detected) (Homo sapiens, UniProt P25440)", "sequence (P25440 whole entry)": "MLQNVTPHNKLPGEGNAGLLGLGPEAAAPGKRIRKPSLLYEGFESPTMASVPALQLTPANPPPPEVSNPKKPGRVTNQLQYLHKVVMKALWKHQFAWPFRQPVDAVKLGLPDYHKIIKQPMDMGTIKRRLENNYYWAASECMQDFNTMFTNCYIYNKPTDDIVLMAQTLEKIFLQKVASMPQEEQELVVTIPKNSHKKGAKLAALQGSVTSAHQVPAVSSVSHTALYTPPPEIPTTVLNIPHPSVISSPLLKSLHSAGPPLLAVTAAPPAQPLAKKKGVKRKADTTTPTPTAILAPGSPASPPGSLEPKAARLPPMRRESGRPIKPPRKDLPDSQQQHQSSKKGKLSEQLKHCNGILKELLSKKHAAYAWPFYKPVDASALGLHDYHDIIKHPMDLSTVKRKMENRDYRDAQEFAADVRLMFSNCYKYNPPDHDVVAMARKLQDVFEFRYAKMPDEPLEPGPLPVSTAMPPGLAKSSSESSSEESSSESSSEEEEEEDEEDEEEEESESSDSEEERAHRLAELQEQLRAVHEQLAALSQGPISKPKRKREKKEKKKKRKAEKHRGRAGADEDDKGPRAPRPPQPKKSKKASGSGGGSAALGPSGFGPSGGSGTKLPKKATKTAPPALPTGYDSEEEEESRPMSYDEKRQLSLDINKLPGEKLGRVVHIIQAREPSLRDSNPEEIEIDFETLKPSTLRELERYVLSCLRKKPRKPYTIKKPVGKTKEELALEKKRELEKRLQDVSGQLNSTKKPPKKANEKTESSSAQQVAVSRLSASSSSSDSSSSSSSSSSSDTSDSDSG", "conditions": "protein BRD2; soluble abundance after heat, U3A cells"}, "[12]": {"target": "proteins of U3A human fibrosarcoma cells (4462 proteins detected) (Homo sapiens, UniProt Q8NFI3)", "sequence (Q8NFI3 whole entry)": "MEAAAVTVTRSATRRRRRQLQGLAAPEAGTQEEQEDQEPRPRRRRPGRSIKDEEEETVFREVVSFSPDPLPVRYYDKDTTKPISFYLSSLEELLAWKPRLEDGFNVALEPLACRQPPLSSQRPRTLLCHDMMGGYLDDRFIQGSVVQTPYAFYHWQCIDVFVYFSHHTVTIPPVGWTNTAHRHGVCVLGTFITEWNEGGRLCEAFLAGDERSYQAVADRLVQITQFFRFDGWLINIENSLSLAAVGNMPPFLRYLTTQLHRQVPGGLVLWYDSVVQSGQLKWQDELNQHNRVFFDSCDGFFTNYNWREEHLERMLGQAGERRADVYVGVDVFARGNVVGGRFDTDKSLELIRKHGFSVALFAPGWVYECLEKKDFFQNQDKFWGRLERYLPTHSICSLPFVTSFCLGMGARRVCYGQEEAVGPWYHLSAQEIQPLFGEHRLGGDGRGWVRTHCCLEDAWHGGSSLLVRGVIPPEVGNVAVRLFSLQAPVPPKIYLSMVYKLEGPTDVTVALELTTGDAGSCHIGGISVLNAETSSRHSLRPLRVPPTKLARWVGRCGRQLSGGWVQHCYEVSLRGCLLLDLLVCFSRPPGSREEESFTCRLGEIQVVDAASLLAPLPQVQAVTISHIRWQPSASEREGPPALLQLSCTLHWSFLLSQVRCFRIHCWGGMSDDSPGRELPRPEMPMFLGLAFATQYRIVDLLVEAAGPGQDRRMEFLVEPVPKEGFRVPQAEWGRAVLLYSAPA", "conditions": "protein ENGASE; soluble abundance after heat, U3A cells"}, "[13]": {"target": "proteins of U3A human fibrosarcoma cells (4462 proteins detected) (Homo sapiens, UniProt Q16891)", "conditions": "protein IMMT; U3A cells"}, "[14]": {"target": "proteins of U3A human fibrosarcoma cells (4462 proteins detected) (Homo sapiens, UniProt Q15149)", "conditions": "protein PLEC; soluble abundance after heat, U3A cells"}, "[15]": {"target": "proteins of U3A human fibrosarcoma cells (4462 proteins detected) (Homo sapiens, UniProt P20700)", "conditions": "protein LMNB1; soluble abundance after heat, U3A cells"}, "[16]": {"target": "proteins of U3A human fibrosarcoma cells (4462 proteins detected) (Homo sapiens, UniProt Q01518)", "sequence (Q01518 whole entry)": "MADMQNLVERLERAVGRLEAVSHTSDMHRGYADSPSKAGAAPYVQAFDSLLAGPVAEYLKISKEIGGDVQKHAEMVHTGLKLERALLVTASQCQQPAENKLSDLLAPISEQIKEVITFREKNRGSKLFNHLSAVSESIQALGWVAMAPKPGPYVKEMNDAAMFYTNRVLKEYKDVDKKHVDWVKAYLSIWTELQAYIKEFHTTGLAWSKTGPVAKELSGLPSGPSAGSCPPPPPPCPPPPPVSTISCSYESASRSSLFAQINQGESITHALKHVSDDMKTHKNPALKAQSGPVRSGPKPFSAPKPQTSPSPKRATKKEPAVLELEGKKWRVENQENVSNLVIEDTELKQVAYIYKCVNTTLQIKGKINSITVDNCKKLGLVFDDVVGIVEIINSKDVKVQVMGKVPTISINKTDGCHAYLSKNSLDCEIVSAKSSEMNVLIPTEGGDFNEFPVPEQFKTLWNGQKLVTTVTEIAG", "conditions": "protein CAP1; U3A cells"}, "[17]": {"target": "proteins of U3A human fibrosarcoma cells (4462 proteins detected) (Homo sapiens, UniProt P23921)", "conditions": "protein RRM1; U3A, 10 μM, 2 h"}, "[18]": {"target": "proteins of U3A human fibrosarcoma cells (4462 proteins detected) (Homo sapiens, UniProt Q9Y2A7)", "sequence (Q9Y2A7 whole entry)": "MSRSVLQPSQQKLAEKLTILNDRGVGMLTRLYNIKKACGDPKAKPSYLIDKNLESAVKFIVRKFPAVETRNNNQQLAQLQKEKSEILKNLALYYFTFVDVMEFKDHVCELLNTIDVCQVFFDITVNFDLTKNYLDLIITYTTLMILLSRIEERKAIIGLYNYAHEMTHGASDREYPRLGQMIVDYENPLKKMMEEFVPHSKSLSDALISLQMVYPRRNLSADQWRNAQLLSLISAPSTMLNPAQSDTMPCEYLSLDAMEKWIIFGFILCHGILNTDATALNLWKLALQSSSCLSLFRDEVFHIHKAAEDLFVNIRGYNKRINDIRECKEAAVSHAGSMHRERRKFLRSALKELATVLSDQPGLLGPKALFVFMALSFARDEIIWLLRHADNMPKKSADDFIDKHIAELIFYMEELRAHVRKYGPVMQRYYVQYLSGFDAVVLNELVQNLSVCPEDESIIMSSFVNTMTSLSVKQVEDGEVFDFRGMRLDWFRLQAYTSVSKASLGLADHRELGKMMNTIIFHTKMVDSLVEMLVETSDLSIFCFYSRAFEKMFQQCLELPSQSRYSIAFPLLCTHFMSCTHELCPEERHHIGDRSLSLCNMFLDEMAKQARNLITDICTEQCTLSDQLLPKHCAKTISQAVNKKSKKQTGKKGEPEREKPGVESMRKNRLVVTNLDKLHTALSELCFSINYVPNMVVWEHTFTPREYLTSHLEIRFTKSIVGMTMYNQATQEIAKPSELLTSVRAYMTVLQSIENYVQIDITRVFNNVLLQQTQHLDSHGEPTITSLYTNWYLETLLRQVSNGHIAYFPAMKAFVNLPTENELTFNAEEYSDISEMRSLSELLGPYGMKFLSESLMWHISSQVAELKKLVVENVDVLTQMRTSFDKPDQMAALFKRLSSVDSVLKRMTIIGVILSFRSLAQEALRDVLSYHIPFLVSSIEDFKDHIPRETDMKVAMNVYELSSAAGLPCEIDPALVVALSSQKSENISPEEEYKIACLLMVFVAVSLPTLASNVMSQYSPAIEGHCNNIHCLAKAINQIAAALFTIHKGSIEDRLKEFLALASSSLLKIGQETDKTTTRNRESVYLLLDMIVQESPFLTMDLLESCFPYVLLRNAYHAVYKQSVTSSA", "conditions": "protein NCKAP1; U3A cells"}, "[19]": {"target": "proteins of U3A human fibrosarcoma cells (4462 proteins detected) (Homo sapiens, UniProt P78316)", "conditions": "protein NOP14; U3A cells"}, "[20]": {"target": "proteins of U3A human fibrosarcoma cells (4462 proteins detected) (Homo sapiens, UniProt O75643)", "conditions": "protein SNRNP200; soluble abundance after heat, U3A cells"}, "[21]": {"target": "proteins of U3A human fibrosarcoma cells (4462 proteins detected) (Homo sapiens, UniProt O95372)", "conditions": "protein LYPLA2; soluble abundance after heat, U3A cells"}, "[22]": {"target": "proteins of U3A human fibrosarcoma cells (4462 proteins detected) (Homo sapiens, UniProt Q9Y2K1)", "conditions": "protein ZBTB1; U3A cells"}, "[23]": {"target": "proteins of U3A human fibrosarcoma cells (4462 proteins detected) (Homo sapiens, UniProt P50402)", "conditions": "protein EMD; soluble abundance after heat, U3A cells"}, "[24]": {"target": "proteins of U3A human fibrosarcoma cells (4462 proteins detected) (Homo sapiens, UniProt Q86WQ0)", "conditions": "protein NR2C2AP, U3A cells"}, "[25]": {"target": "proteins of U3A human fibrosarcoma cells (4462 proteins detected) (Homo sapiens, UniProt Q6V1X1)", "conditions": "protein DPP8; U3A cells"}, "[26]": {"target": "proteins of U3A human fibrosarcoma cells (4462 proteins detected) (Homo sapiens, UniProt Q96SN8)", "conditions": "protein CDK5RAP2; U3A, 10 μM, 2 h"}, "[27]": {"target": "proteins of U3A human fibrosarcoma cells (4462 proteins detected) (Homo sapiens, UniProt P07910)", "conditions": "protein HNRNPC; U3A, 10 μM, 2 h"}, "[28]": {"target": "proteins of U3A human fibrosarcoma cells (4462 proteins detected) (Homo sapiens, UniProt Q9UKV5)", "conditions": "protein AMFR; U3A cells"}, "[29]": {"target": "proteins of U3A human fibrosarcoma cells (4462 proteins detected) (Homo sapiens, UniProt P09972)", "conditions": "protein ALDOC, U3A cells"}}}
{"molecule": "CCc1nc(N)nc(N)c1-c1ccc(Cl)cc1", "note": "[pyrimethamine]", "values": [{"measurement": "Log2 (PYR/DMSO)", "setting": "[1]", "result": 0.20}, {"measurement": "Log2 (PYR/DMSO)", "setting": "[2]", "result": -0.04}, {"measurement": "Log2 (PYR/DMSO)", "setting": "[3]", "result": 0.15}, {"measurement": "Log2 (PYR/DMSO)", "setting": "[4]", "result": 0.21}, {"measurement": "Log2 (PYR/DMSO)", "setting": "[5]", "result": 0.16}, {"measurement": "Log2 (PYR/DMSO)", "setting": "[6]", "result": -0.04}, {"measurement": "Log2 (PYR/DMSO)", "setting": "[7]", "result": 0.18}, {"measurement": "Log2 (PYR/DMSO), PYCRL", "setting": "[8]", "result": -0.15}, {"measurement": "Log2 (PYR/DMSO)", "setting": "[9]", "result": -0.04}, {"measurement": "Log2 (PYR/DMSO)", "setting": "[10]", "result": -0.05}, {"measurement": "Log2 (PYR/DMSO)", "setting": "[11]", "result": 0.14}, {"measurement": "Log2 (PYR/DMSO)", "setting": "[12]", "result": 0.15}, {"measurement": "Log2 (PYR/DMSO)", "setting": "[13]", "result": 0.19}, {"measurement": "Log2 (PYR/DMSO)", "setting": "[14]", "result": 0.14}, {"measurement": "Log2 (PYR/DMSO)", "setting": "[15]", "result": 0.15}, {"measurement": "Log2 (PYR/DMSO)", "setting": "[16]", "result": 0.20}, {"measurement": "Log2 (PYR/DMSO), RRM1", "setting": "[17]", "result": 0.24}, {"measurement": "Log2 (PYR/DMSO)", "setting": "[18]", "result": 0.15}, {"measurement": "Log2 (PYR/DMSO)", "setting": "[19]", "result": 0.15}, {"measurement": "Log2 (PYR/DMSO)", "setting": "[20]", "result": 0.15}, {"measurement": "Log2 (PYR/DMSO)", "setting": "[21]", "result": 0.15}, {"measurement": "Log2 (PYR/DMSO)", "setting": "[22]", "result": 0.22}, {"measurement": "Log2 (PYR/DMSO)", "setting": "[23]", "result": 0.15}, {"measurement": "Log2 (PYR/DMSO)", "setting": "[24]", "result": -0.03}, {"measurement": "Log2 (PYR/DMSO)", "setting": "[25]", "result": 0.16}, {"measurement": "Log2 (PYR/DMSO), CDK5RAP2", "setting": "[26]", "result": -0.21}, {"measurement": "Log2 (PYR/DMSO), HNRNPC", "setting": "[27]", "result": 0.27}, {"measurement": "Log2 (PYR/DMSO)", "setting": "[28]", "result": 0.16}, {"measurement": "Log2 (PYR/DMSO)", "setting": "[29]", "result": -0.04}]}
